{
  "source": "patent US10603319B2",
  "about": "“Pyrimidine derivatives and their use in treating or preventing a respiratory syncytial virus infection” (REVIRAL LIMITED, priority 2016, dated 2020)",
  "key": {"RSV A2": {"system": "RSV A2", "experiment": "Plaque Reduction Assay 1 (Vero cells, immunostaining)", "type": "cell-based", "conditions": "two replicate values, read-out: RSV Plaque Reduction assays A2 (PRNT1) (n = 2) IC50", "experimental": "Plaque Reduction Assay 1: Vero cells were seeded in 96-well plates in a volume of 100 μL of Optimem supplemented with 3% FCS at a concentration of 4×10^4 cells per well. After an overnight incubation at 37° C. in a humidified 5% CO2 atmosphere, the monolayer of cells should be approximately 90% confluent. Antiviral compounds were titrated in pre-warmed Serum Free (SF) Optimem in a U-bottom 96 well plate. For compounds in a DMSO solution, titration in 100% DMSO was performed first and each concentration added individually to a 2× final concentration at 4% DMSO in SF media before mixing with virus (2% final DMSO with virus). Media was then removed from cells and replaced with PBS (100 μl/well). RSV stock was thawed and diluted in SF Optimem media to 4000 PFU/mLl. An equal volume of virus was added to compounds on the titration plate. PBS was removed from cells which were then inoculated with the virus/compound solution (50 μL/well). Cells were incubated for 2 h in a 37° C.+5% CO2 humidified incubator to allow infection. Inoculum was removed and media (Optimem+1% FCS) added to cells (100 μl/well). Cells were subsequently incubated for 48 h at 37° C.+5% CO2 in a humidified incubator. Immunostaining Procedure: Media was removed from cells and the monolayer washed with PBS. Cells were fixed with ice cold 80% Acetone in PBS (100 μl/well) for 20 mins at −20° C. Fixative was removed and cells are dried for 30 mins with plates inverted. Blocking solution (5% skim milk powder in PBS-T) was added to cells (150 μL/well) and plates were incubated for 30 mins at room temperature. Blocking solution was removed and plates washed once with PBS-T. Primary antibody in blocking solution was added to plates (50 μl/well) and incubated for 1 h at 37° C. Plates were then washed 3 times with PBS-T. Secondary antibody in blocking solution was added to plates ([…]) and incubated for 1 h at 37° C. in the dark. Plates were washed as above and then dried for 10 mins. Plates were scanned on the Odyssey Imager (Li-Cor Biosciences) at a resolution of […], medium quality and level 5 intensity in the […]. Data Analysis: Images obtained were saved and plaque numbers counted with the aid of computer imaging software. EC50 values for compounds were derived from dose response curves [three variable log(inhibitor) vs response] obtained using Graphpad Prism software."}, "[1]": {"experiment": "Liver microsomal stability, rat", "type": "in vitro ADME, Sprague Dawley rats", "conditions": "male, Sprague Dawley, pooled liver microsomes, pH 7.4, 0.5 mg/mL protein, read-out: Liver Microsomal Stability (T1/2/mins) rat", "experimental": "Microsomal Incubation: Experimental Procedure\nPooled human liver microsomes (pooled male and female), pooled rat liver microsomes (male Sprague Dawley rats) and pooled dog liver microsomes (male Beagle dog) are purchased from a reputable commercial supplier and stored at −80° C. prior to use.\nMicrosomes (final protein concentration 0.5 mg/mL), 0.1 M phosphate buffer pH 7.4 and test compound (final substrate concentration 3 μM; final DMSO concentration 0.25%) are pre-incubated at 37° C. prior to the addition of NADPH (final concentration 1 mM) to initiate the reaction. The final incubation volume is 50 μL. A control incubation is included for each compound tested where 0.1 M phosphate buffer pH 7.4 is added instead of NADPH (minus NADPH). Two control compounds are included with each species. All incubations are performed singularly for each test compound.\nCompounds are incubated for 0, 5, 15, 30 and 45 min. The control (minus NADPH) is incubated for 45 min only. […] Following protein precipitation, the sample supernatants are combined in cassettes of up to 4 compounds, internal standard is added and samples analysed by LC-MS/MS. From a plot of ln peak area ratio (compound peak area/internal standard peak area) against time, the gradient of the line is determined. Subsequently, half-life and intrinsic clearance are calculated"}, "P-gp (MDR1), human": {"system": "P-gp (MDR1), human", "experiment": "in vitro", "type": "in vitro ADME", "conditions": "dog, MDCK-MDR1", "experimental": "MDR I-MDCK Permeability: Experimental Procedure\nMDR1-MDCK cells obtained from the NIH (Rockville, Md., USA) are used between passage numbers 6-30. Cells are seeded onto Millipore Multiscreen Transwell plates at 3.4×10^5 cells/cm2. The cells are cultured in DMEM and media is changed on day 3. On day 4 the permeability study is performed. Cell culture and assay incubations are carried out at 37° C. in an atmosphere of 5% CO2 with a relative humidity of 95%. On the day of the assay, the monolayers are prepared by rinsing both basolateral and apical surfaces twice with Hanks Balanced Salt Solution (HBSS) at the desired pH warmed to 37° C. Cells are then incubated with HBSS at the desired pH in both apical and basolateral compartments for 40 min to stabilise physiological parameters.\nThe dosing solutions are prepared by diluting test compound with assay buffer to give a final test compound concentration of 10 μM (final DMSO concentration of 1% v/v). […]\nTest compound permeability is assessed in duplicate. […]\nTest and control compounds are quantified by LC-MS/MS cassette analysis using an 8-point calibration with appropriate dilution of the samples. The starting concentration (C0) is determined from the dosing solution and the experimental recovery calculated from C0 and both apical and basolateral compartment concentrations. […]"}},
  "note": "Where “and” joins values, the source holds several entries; their conditions need not be identical. Equal values may be shown once.",
  "data": [
    {"smiles": "NC1CCN(c2ncc(CN3C(=O)C4(CC4)c4ccc(F)cc43)c(N[C@H]3CC[C@H](O)CC3)n2)C1", "note": "(stereo partly shown) [Compound 2, 1′-((2-(3-Aminopyrrolidin-1-yl)-4-(((1r,4r)-4-hydroxycyclohexyl)amino)pyrimidin-5-yl)methyl)-6′-fluorospiro[cyclopropane-1,3′-indolin]-2′-one]", "values": [
      {"measurement": "IC50", "setting": "RSV A2", "value": "0.0189 µM and 0.00463 µM"},
      {"measurement": "half-life at 3 μM", "setting": "[1]", "value": 2.17, "unit": "h"},
      {"measurement": "Papp A→B at 60 min, 10 μM", "setting": "P-gp (MDR1), human", "value": 0.32, "unit": "×10⁻⁶ cm/s"},
      {"measurement": "Papp B→A at 60 min, 10 μM", "setting": "P-gp (MDR1), human", "value": 7.99, "unit": "×10⁻⁶ cm/s"}
    ]}
  ]
}
